ChEMBL document CHEMBL1146635 (Bioorg Med Chem Lett, 2003)

What was measured:
[1] = system: Human immunodeficiency virus 1; assay: Viral spread inhibitory concentration against HIV-1 strain K-60C in MT-4 human T-lymphoid cells; format: functional; conditions: Human immunodeficiency virus 1, T-lymphoid; read-out: CIC95
[2] = system: Human immunodeficiency virus 1; assay: Viral spread inhibitory concentration against HIV-1 strain NL4-3 in MT-4 human T-lymphoid cells; format: functional; conditions: Human immunodeficiency virus 1, T-lymphoid; read-out: CIC95
[3] = system: Human immunodeficiency virus 1; assay: Viral spread inhibitory concentration against HIV-1 strain Q-60C in MT-4 human T-lymphoid cells; format: functional; conditions: Human immunodeficiency virus 1, T-lymphoid; read-out: CIC95
[4] = molecular target: T1, Human immunodeficiency virus type 1 protease (Human immunodeficiency virus 1, UniProt Q72874); assay: In vitro inhibition of HIV-1 protease (NL4-3 strain).
MT4 = assay: Viral spread inhibitory concentration against HIV-1 strain V-18C in MT-4 human T-lymphoid cells; format: functional; conditions: read-out: CIC95
[5] = Cmax value determined in dog at a dose of […] by oral administration along with […] (10 mg/kg); format: ADME, organism-based, Canis lupus familiaris; design: route oral; conditions: in vivo
[6] = Area under curve determined in dog at a dose of 10 mg/kg by oral administration along with […] (10 mg/kg); conditions: in vivo
[7] = Plasma clearance in human liver microsomes; format: ADME, Microsome
Cytochrome P450 3A4 = Cytochrome P450 3A4 (Homo sapiens, UniProt P08684); assay: In vitro inhibition of Cytochrome P450 3A4; format: ADME
[8] = Cmax value determined in dog at a dose of 10 mg/kg by oral administration; format: ADME, organism-based, Canis lupus familiaris; design: dose 10 mg/kg, route oral; conditions: in vivo
[9] = Area under curve determined in dog at a dose of 10 mg/kg by oral administration; format: ADME, organism-based, Canis lupus familiaris; design: dose 10 mg/kg, route oral; conditions: in vivo
Cytochrome P450 2D6 = Cytochrome P450 2D6 (Homo sapiens, UniProt P10635); assay: In vitro inhibition of Cytochrome P450 2D6; format: ADME
[10] = molecular target: T1, Human immunodeficiency virus type 1 protease; assay: Inhibitory activity against HIV-1 protease (K-60C strain)
[11] = molecular target: T1, Human immunodeficiency virus type 1 protease; assay: Inhibitory activity against HIV-1 protease (V-18C strain)
[12] = Cmax value determined in dog at a dose of 5 mg/kg by oral administration; format: ADME, organism-based, Canis lupus familiaris; design: dose 5 mg/kg, route oral; conditions: in vivo
[13] = molecular target: T1, Human immunodeficiency virus type 1 protease; assay: Inhibitory activity against HIV-1 protease (Q-60C strain)
Canis familiaris = assay: Cmax value determined in dog at a dose of 10 mg/kg by oral administration along with indinavir (10 mg/kg); conditions: in vivo

Cytochrome P450 3A4, sequence (P08684 whole entry): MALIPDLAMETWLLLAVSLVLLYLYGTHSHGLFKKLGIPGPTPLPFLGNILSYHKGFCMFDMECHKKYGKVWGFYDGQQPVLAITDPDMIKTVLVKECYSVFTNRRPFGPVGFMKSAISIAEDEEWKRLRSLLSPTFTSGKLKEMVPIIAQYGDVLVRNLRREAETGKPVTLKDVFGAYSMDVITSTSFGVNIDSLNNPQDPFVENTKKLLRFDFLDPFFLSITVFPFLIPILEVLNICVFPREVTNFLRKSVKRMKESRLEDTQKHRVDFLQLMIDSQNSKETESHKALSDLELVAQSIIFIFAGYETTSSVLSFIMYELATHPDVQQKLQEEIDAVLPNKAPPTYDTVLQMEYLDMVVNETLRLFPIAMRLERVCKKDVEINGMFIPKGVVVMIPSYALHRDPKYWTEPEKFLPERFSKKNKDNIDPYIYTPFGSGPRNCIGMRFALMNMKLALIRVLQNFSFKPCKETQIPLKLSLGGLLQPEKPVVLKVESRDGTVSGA
Cytochrome P450 2D6, sequence (P10635 whole entry): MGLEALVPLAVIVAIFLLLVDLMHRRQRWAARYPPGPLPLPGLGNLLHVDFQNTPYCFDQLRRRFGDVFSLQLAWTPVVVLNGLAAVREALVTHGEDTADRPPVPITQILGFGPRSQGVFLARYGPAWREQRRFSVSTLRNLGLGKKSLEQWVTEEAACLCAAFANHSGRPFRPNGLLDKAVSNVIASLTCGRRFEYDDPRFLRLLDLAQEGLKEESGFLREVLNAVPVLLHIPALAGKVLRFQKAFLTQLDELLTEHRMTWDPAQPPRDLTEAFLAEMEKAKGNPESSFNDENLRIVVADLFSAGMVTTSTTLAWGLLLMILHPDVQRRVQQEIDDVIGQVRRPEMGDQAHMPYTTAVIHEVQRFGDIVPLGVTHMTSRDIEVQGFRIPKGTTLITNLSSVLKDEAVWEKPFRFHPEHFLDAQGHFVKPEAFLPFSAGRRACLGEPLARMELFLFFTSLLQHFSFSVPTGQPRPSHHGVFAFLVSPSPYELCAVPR

Compound | IC95 [1] [nM] | IC95 [2] [nM] | IC95 [3] [nM] | IC50 [4] [nM] | IC95 (MT4) [nM] | further results
O=C(N[C@H]1c2ccccc2OC[C@H]1O)[C@H](Cc1cccnc1)C[C@H](O)CN1CCN(Cc2ccn(-c3ccccc3C(F)(F)F)c2)C[C@H]1C(=O)NCC(F)(F)F | 500 | 38 | 500 | 1.32 |  | 
O=C(N[C@H]1c2ccccc2OC[C@H]1O)[C@H](Cc1cccnc1)C[C@H](O)CN1CCN(Cc2ccn(-c3cc(Cl)c(Cl)c(Cl)c3)c2)C[C@H]1C(=O)NCC(F)(F)F | 31 | ≤ 8 | ≤ 8 | 0.02 | 15 | 
O=C(N[C@H]1c2ccccc2OC[C@H]1O)[C@H](Cc1cccnc1)C[C@H](O)CN1CCN(Cc2ccn(-c3cccc(F)c3)c2)C[C@H]1C(=O)NCC(F)(F)F | 31 | 15 | 15 | 0.05 |  | 
CC(C)(C)NC(=O)[C@@H]1CN(Cc2cccnc2)CCN1C[C@@H](O)C[C@@H](Cc1ccccc1)C(=O)N[C@H]1c2ccccc2C[C@H]1O.O | > 1000 | 50 | > 1000 |  | > 1000 | Cmax [5]: 11.4 µM; AUC [6]: 12.5 µM·h
O=C(N[C@H]1c2ccccc2OC[C@H]1O)[C@H](Cc1cccnc1)C[C@H](O)CN1CCN(Cc2ccn(-c3ccc(Cl)c(Cl)c3)c2)C[C@H]1C(=O)NCC(F)(F)F | 31 | 15 | ≤ 8 | 0.02 | 15 | 
N#Cc1cccc(-n2ccc(CN3CCN(C[C@@H](O)C[C@@H](Cc4cccnc4)C(=O)N[C@H]4c5ccccc5OC[C@H]4O)[C@H](C(=O)NCC(F)(F)F)C3)c2)c1 | 62 | 62 | ≤ 31 | 0.15 |  | 
O=C(N[C@H]1c2ccccc2OC[C@H]1O)[C@H](Cc1cccnc1)C[C@H](O)CN1CCN(Cc2ccn(-c3cccc(Cl)c3)c2)C[C@H]1C(=O)NCC(F)(F)F | ≤ 8 | ≤ 8 | ≤ 8 | 0.05 | ≤ 8 | CLint scaled [7]: 307 mL/min/kg; IC50 (Cytochrome P450 3A4): 80 nM
Cc1ccccc1-n1ccc(CN2CCN(C[C@@H](O)C[C@@H](Cc3cccnc3)C(=O)N[C@H]3c4ccccc4OC[C@H]3O)[C@H](C(=O)NCC(F)(F)F)C2)c1 | 125 | ≤ 8 | 31 | 0.16 | 31 | 
O=C(N[C@H]1c2ccccc2OC[C@H]1O)[C@H](Cc1cccnc1)C[C@H](O)CN1CCN(Cc2ccn(-c3cccc(C(F)(F)F)c3)c2)C[C@H]1C(=O)NCC(F)(F)F | 31 | 15 | ≤ 8 | 0.05 |  | 
Cc1cccc(-n2ccc(CN3CCN(C[C@@H](O)C[C@@H](Cc4cccnc4)C(=O)N[C@H]4c5ccccc5OC[C@H]4O)[C@H](C(=O)NCC(F)(F)F)C3)c2)c1 | 62 | ≤ 8 | ≤ 8 | 0.1 | ≤ 8 | 
O=C(N[C@H]1c2ccccc2OC[C@H]1O)[C@H](Cc1cccnc1)C[C@H](O)CN1CCN(Cc2ccn(-c3ccccc3F)c2)C[C@H]1C(=O)NCC(F)(F)F | 62 | 15 | 31 | 0.16 |  | 
N#Cc1ccccc1-n1ccc(CN2CCN(C[C@@H](O)C[C@@H](Cc3cccnc3)C(=O)N[C@H]3c4ccccc4OC[C@H]3O)[C@H](C(=O)NCC(F)(F)F)C2)c1 | 250 | 46 | 62 | 0.46 |  | 
O=C(N[C@H]1c2ccccc2OC[C@H]1O)[C@H](Cc1cccnc1)C[C@H](O)CN1CCN(Cc2ccn(-c3ccc(F)cc3)c2)C[C@H]1C(=O)NCC(F)(F)F | 15 | 15 | 15 | 0.05 |  | 
O=C(N[C@H]1c2ccccc2OC[C@H]1O)[C@H](Cc1cccnc1)C[C@H](O)CN1CCN(Cc2ccn(-c3ccccc3)c2)C[C@H]1C(=O)NCC(F)(F)F | 31 | 15 | ≤ 8 | 0.11 | ≤ 8 | CLint scaled [7]: 332 mL/min/kg; Cmax [8]: 5.3 µM; AUC [9]: 7 µM·h; IC50 (Cytochrome P450 3A4): 400 nM; IC50 (Cytochrome P450 2D6): 12000 nM; IC50 [10]: 2.7 nM; IC50 [11]: 2.49 nM
O=C(N[C@H]1c2ccccc2OC[C@H]1O)[C@H](Cc1cccnc1)C[C@H](O)CN1CCN(Cc2ccn(-c3ccc(Cl)cc3)c2)C[C@H]1C(=O)NCC(F)(F)F | 15 | ≤ 8 | ≤ 8 | 0.03 | ≤ 8 | CLint scaled [7]: 229 mL/min/kg; IC50 (Cytochrome P450 3A4): 50 nM
O=C(N[C@H]1c2ccccc2OC[C@H]1O)[C@H](Cc1cccnc1)C[C@H](O)CN1CCN(Cc2ccc(-c3ccccc3)o2)C[C@H]1C(=O)NCC(F)(F)F | ≤ 8 | ≤ 8 | ≤ 8 |  | ≤ 8 | CLint scaled [7]: 238 mL/min/kg; Cmax [12]: 0.1 µM; IC50 [10]: 0.06 nM; IC50 [13]: 0.07 nM; IC50 [11]: 0.15 nM; Cmax (Canis familiaris): 6.1 µM
Cc1ccc(-n2ccc(CN3CCN(C[C@@H](O)C[C@@H](Cc4cccnc4)C(=O)N[C@H]4c5ccccc5OC[C@H]4O)[C@H](C(=O)NCC(F)(F)F)C3)c2)cc1 | 15 | 15 | ≤ 8 | 0.06 | 15 | 
O=C(N[C@H]1c2ccccc2OC[C@H]1O)[C@H](Cc1cccnc1)C[C@H](O)CN1CCN(Cc2ccn(-c3ccc(F)c(F)c3F)c2)C[C@H]1C(=O)NCC(F)(F)F | 15 | ≤ 8 | ≤ 8 | 0.05 | ≤ 8 | CLint scaled [7]: 218 mL/min/kg; Cmax [8]: 1.9 µM; AUC [9]: 4.4 µM·h; IC50 (Cytochrome P450 3A4): 50 nM; AUC [6]: 26.6 µM·h
O=C(N[C@H]1c2ccccc2OC[C@H]1O)[C@H](Cc1cccnc1)C[C@H](O)CN1CCN(Cc2ccn(-c3ccccc3Cl)c2)C[C@H]1C(=O)NCC(F)(F)F | 62 | ≤ 8 | 31 | 0.18 | 31 | 
O=C(N[C@H]1c2ccccc2OC[C@H]1O)[C@H](Cc1cccnc1)C[C@H](O)CN1CCN(Cc2ccn(-c3ccc(C(F)(F)F)cc3)c2)C[C@H]1C(=O)NCC(F)(F)F | 15 | 15 | ≤ 8 | 0.04 |  | 
N#Cc1ccc(-n2ccc(CN3CCN(C[C@@H](O)C[C@@H](Cc4cccnc4)C(=O)N[C@H]4c5ccccc5OC[C@H]4O)[C@H](C(=O)NCC(F)(F)F)C3)c2)cc1 | 125 | 62 | 31 | 0.1 |  | 
